From patent US7906486B2, “Method of treating or preventing tissue deterioration, injury or damage due to disease of mucosa” (SciClone Pharmaceuticals, Inc., priority 2007, dated 2011)
Values joined by “and” are separate entries in the source; they are usually repeats but may differ in a detail not shown here. Equal values may be shown once.

Test system: oral mucositis induced by cis-platin 5 mg/kg and radiation 35 Gy (left cheek pouch)
Assay: Oral mucositis induced by a combination of cisplatin and acute radiation in hamsters, mucositis scoring (Example 4, SCI-04)
Type: in vivo, Syrian Golden Hamsters
Set-up: key to Mucositis score, day 6 / Mucositis score, day 8: 0: Pouch completely healthy. No erythema or vasodilation.; 1: Light to severe erythema and vasodilation. No erosion of mucosa.; 2: Severe erythema and vasodilation. Erosion of superficial aspects of mucosa leaving denuded areas. Decreased stippling of mucosa.; 3: Formation of off-white ulcers in one or more places. Ulcers may have a yellow/gray due to pseudomembrane. Cumulative size of ulcers should equal about ¼ of the pouch. Severe erythema and vasodilation.; 4: Cumulative seize of ulcers should equal about ½ of the pouch. Loss of pliability. Severe erythema and vasodilation.; 5: Virtually all of pouch is ulcerated. Loss of pliability (pouch can only partially be extracted from mouth); key to peak mean mucositis score: standard six-point oral mucositis scale; ulceration = score ≥3
Settings: for % Days >=3 / Days <3 / Days >=3: qd, sc, Days −1 to 20; for Days >=3: animal days with mucositis score of three or more
Method: Forty Golden Syrian hamsters were prospectively randomized into four equally sized groups. Mucositis was induced on the left cheek pouch mucosa of golden Syrian hamsters by a single dose of cis-platin at 5 mg/kg given on day −1, and a single dose of radiation administered on day 0 at a dose of 35Gy. Beginning on day −1 and continuing once daily until day 20, SCV-07 was given by sub-cutaneous injection at doses of 10 μg/kg, 100 μg/kg or 1 mg/kg in a volume of 100 μL. Animals' activity and weight were evaluated daily. Beginning on day 6 and continuing on alternate days for the duration of the study, oral mucositis was evaluated using a standard scoring six point scale. The number of days of ulcerative mucositis was evaluated using a Chi-squared test of scores of ≧3 throughout the study, and the individual daily group scores were assessed with a Rank Sum Test.
The chemo-radiation model of oral mucositis in hamsters, developed by the Principal Investigator, has proven to be an accurate, efficient and cost-effective technique to provide a preliminary evaluation of anti-mucositis compounds. In this model, hamsters received a single dose of cis-platin at 5 mg/kg on day −1, followed by a single dose of radiation of 35 Gy to the left cheek pouch on day 0, rather than the single dose of 40 Gy on day 0 that is used in acute radiation studies. The course of mucositis in this model is very similar to the acute radiation model and results in peak mucositis scores approximately 16-18 days following radiation.
Hamsters received a single dose of cis-platin at 5 mg/kg on day −1 by intra-peritoneal injection, followed by a single dose of radiation of 35 Gy to the left cheek pouch on day 0. This was accomplished by anesthetizing the animals and everting the left buccal pouch, while protecting the rest of the animal's bodies with a lead shield. Test materials were given by sub-cutaneous injection once daily as detailed in Table 13. Mucositis was evaluated clinically starting on day 6, and continuing on alternate days until day 28. Test articles were given as from day −1 to day 20.
The grade of mucositis was scored, beginning day 6, and for every second day thereafter, through and including day 28. The effect on mucositis of each drug treatment compared to placebo was assessed according to the following parameters:
On each evaluation day, the number of animals with a blinded mucositis score of ≧3 in each drug treatment group was compared to the control group. Differences were compared on a cumulative basis and statistical significance was determined by chi-square analysis. Efficacy, in this analysis, is defined by a significant reduction in the number of days that a group of animals had ulcerations (scores 3) when compared to the control group.
For each evaluation day the scores of the control group were compared to those of the treated groups using non-parametric rank sum analysis. Treatment success was considered as a statistically significant lowering of scores in the treated group on 2 or more days from day 6 to day 28.
Forty (40) male Syrian Golden Hamsters were given an intraperitoneal injection of 5 mg/kg Cisplatin on day −1. On day 0 all animals were given an acute radiation dose of 35 Gy directed to their left buccal cheek pouch. This was accomplished by anesthetizing the animals and everting the left buccal pouch, while protecting the rest of the animals with a lead shield. Test materials were given by subcutaneous injection once daily as detailed in Table 13. Mucositis was evaluated clinically starting on Day 6, and continued on alternate days until day 28.
In this study, mucositis was induced with a combination of Cis-platin and radiation. Cis-platin was given as a single injection (IP) of 5 mg/kg on day −1. Radiation was given as a single focal dose of 35 Gy on day 0. Radiation was generated with a Philips 160 kVp (kilovolt potential) (18.75-ma) X-ray source at a focal distance of 30 cm, with a 3.0 mm hardened Al filtration system. […]

[1] = printed 100 ug/kg on days -1 to 20 (second such statement, third treated group)

SMILES: N[C@H](CCC(=O)N[C@@H](Cc1c[nH]c2ccccc12)C(=O)O)C(=O)O [SCV-07, γ-D-glutamyl-L-tryptophan]
- P, daily mucositis scores (Mann-Whitney rank sum) vs saline controls (10 ug/kg days -1 to 20, day 22): 0.010
- P, daily mucositis scores (Mann-Whitney rank sum) vs saline controls (10 ug/kg days -1 to 20, day 24): 0.022
- P, daily mucositis scores (Mann-Whitney rank sum) vs saline controls (10 ug/kg days -1 to 20, day 26): 0.015
- P, daily mucositis scores (Mann-Whitney rank sum) vs saline controls (10 ug/kg days -1 to 20, day 28): < 0.001
- % of animal days with a mucositis score of 3 or higher (10 ug/kg from day -1 to day 20): 34.2%
- P, chi-squared test vs controls, days with score of 3 or higher (10 ug/kg from day -1 to day 20): < 0.001
- day of peak mean mucositis score (10 ug/kg from day -1 to day 20): 16
- peak mean mucositis score (10 ug/kg from day -1 to day 20): 2.9
- % Days >=3 (10 ug/kg): 34.2%
- Days <3 (10 ug/kg): 158
- Days >=3 (10 ug/kg): 82
- P, daily mucositis scores (Mann-Whitney rank sum) vs saline controls (100 ug/kg days -1 to 20, day 6): 0.015
- P, daily mucositis scores (Mann-Whitney rank sum) vs saline controls (100 ug/kg days -1 to 20, day 22): 0.003
- P, daily mucositis scores (Mann-Whitney rank sum) vs saline controls (100 ug/kg days -1 to 20, day 24): 0.005
- P, daily mucositis scores (Mann-Whitney rank sum) vs saline controls (100 ug/kg days -1 to 20, day 26): < 0.001
- P, daily mucositis scores (Mann-Whitney rank sum) vs saline controls (100 ug/kg days -1 to 20, day 28): < 0.001
- peak mean mucositis score (100 ug/kg from day -1 to day 20): 2.8
- % of animal days with a mucositis score of 3 or higher (100 ug/kg on days -1 to 20): 29.2%
- P, chi-squared test vs controls, days with score of 3 or higher (100 ug/kg on days -1 to 20): < 0.001
- % Days >=3 (100 ug/kg): 29.2%
- Days <3 (100 ug/kg): 170
- Days >=3 (100 ug/kg): 70
- P, daily mucositis scores (Mann-Whitney rank sum) vs saline controls (1 mg/kg days -1 to 20, day 6): 0.015
- P, daily mucositis scores (Mann-Whitney rank sum) vs saline controls (1 mg/kg days -1 to 20, day 20): 0.029
- P, daily mucositis scores (Mann-Whitney rank sum) vs saline controls (1 mg/kg days -1 to 20, day 22): 0.012
- P, daily mucositis scores (Mann-Whitney rank sum) vs saline controls (1 mg/kg days -1 to 20, day 24): 0.001
- P, daily mucositis scores (Mann-Whitney rank sum) vs saline controls (1 mg/kg days -1 to 20, day 26): 0.003
- P, daily mucositis scores (Mann-Whitney rank sum) vs saline controls (1 mg/kg days -1 to 20, day 28): < 0.001
- day of peak mean mucositis score (1 mg/kg from day -1 to day 20): 16
- peak mean mucositis score (1 mg/kg from day -1 to day 20): 3.2
- % Days >=3 (1 mg/kg): 30.8%
- Days <3 (1 mg/kg): 166
- Days >=3 (1 mg/kg): 74
- Mucositis score, day 6 (Group 2 (SCV-07 10 μg/kg, day -1 to day 20), individual animal scores, two scores per animal, day 6): 0 (14×) and 1 (6×)
- Mucositis score, day 8 (Group 2 (SCV-07 10 μg/kg, day -1 to day 20), individual animal scores, two scores per animal, day 8): 0 (18×) and 1 (2×)
- severe mucositis, % of animals days evaluated (SCV-07 treated animals (all test groups), 50% in vehicle controls): approximately 30%
- % of animal days with a mucositis score of 3 or higher [1]: 30.8%
- P, chi-squared test vs controls, days with score of 3 or higher [1]: < 0.001
